Molecules are shown by their SMILES.

T1 sequence (P08581 25-1390): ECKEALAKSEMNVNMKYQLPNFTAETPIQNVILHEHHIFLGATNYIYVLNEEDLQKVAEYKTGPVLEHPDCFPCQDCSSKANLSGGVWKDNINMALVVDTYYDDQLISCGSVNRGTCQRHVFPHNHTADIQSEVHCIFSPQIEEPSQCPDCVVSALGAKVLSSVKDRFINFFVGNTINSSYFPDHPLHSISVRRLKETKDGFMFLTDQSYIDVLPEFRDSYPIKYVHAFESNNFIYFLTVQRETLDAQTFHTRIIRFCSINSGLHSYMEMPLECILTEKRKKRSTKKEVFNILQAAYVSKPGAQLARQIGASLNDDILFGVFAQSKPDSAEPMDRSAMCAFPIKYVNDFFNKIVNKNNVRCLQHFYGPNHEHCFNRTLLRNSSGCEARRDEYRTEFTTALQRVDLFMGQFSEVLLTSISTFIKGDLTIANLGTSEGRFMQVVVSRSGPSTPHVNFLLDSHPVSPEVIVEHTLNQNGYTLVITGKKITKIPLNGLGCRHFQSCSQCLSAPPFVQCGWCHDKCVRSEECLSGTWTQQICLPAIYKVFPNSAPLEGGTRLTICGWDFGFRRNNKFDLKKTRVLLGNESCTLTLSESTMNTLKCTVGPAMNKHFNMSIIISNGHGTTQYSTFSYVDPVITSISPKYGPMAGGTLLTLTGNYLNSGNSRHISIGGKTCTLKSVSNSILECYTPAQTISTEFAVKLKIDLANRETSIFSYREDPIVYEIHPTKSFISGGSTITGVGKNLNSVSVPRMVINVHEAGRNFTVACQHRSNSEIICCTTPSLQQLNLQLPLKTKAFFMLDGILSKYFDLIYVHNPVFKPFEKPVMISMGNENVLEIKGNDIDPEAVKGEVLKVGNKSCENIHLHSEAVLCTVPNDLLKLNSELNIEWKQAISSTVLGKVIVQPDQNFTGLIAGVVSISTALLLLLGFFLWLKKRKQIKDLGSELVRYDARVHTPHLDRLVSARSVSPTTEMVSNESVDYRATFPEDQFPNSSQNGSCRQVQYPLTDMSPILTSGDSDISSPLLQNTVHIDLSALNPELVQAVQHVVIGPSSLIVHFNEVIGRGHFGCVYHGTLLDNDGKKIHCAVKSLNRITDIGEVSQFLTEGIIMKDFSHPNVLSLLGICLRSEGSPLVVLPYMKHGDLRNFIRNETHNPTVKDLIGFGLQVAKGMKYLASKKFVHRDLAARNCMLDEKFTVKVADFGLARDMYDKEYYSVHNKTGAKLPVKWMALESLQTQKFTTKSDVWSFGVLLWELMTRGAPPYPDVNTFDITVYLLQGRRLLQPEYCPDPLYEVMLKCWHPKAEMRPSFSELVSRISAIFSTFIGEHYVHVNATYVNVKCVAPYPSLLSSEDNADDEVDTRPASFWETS

This assay concerns the target T1, met (HGF receptor) in human gastric cancer cells MKN45 (Homo sapiens, UniProt P08581).
T1 construct: endogenous in cells; host or cells: MKN45 human gastric cancer cells
Put plainly: Inhibitory activity against met-autophosphorylation using ELISA method (2), MKN45 cells, HGF-independent. It is filed as cell-based. In outline: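 MKN45 cells, 3×10^4 per well in RPMI with 0.1% FCS overnight, were exposed to compound in DMSO for 1 h at 37 °C without HGF. Lysates were captured on anti-phosphotyrosine (PY20) plates, Met detected with anti-Met and peroxidase secondary antibody, absorbance at 450 nm.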
Background: ELISA stands for enzyme-linked immunosorbent assay.
Take `COc1cc2nccc(Oc3ccc(NC(=O)NC(=O)Cc4ccc(F)cc4F)cc3F)c2cc1OC` [Example 34, 1-[2-(2,4-difluorophenyl)acetyl]-3-[4-(6,7-dimethoxyquinolin-4-yloxy)-3-fluorophenyl]urea]: 0.0463 µM corresponded to half-maximal inhibition (IC50).
For `COc1cc2c(Oc3ccc(NC(=S)NC(=O)Cc4ccc(C)cc4)cc3F)ccnc2cc1OCCCN1CCOCC1` [Example 304, 1-{3-Fluoro-4-[6-methoxy-7-(3-morpholin-4-yl-propoxy)-quinolin-4-yloxy]-phenyl}-3-(2-p-toluyl-acetyl)-thiourea] the value was 0.0659 µM; for `COc1cc2c(Oc3ccc(NC(=S)NC(=O)Cc4ccc(C)cc4)cc3F)ccnc2cc1OCC(O)CN1CCOCC1` (stereo not shown) [Example 335], 0.0236 µM; for `COc1cc2nccc(Oc3ccc(NC(=O)NC(=O)Cc4ccccc4)cc3Cl)c2cc1OC` [Example 18, 1-[3-chloro-4-(6,7-dimethoxyquinolin-4-yloxy)-phenyl]-3-phenylacetylurea], 0.15 µM.
In the case of `COc1cc2nccc(Oc3ccc(NC(=S)NC(=O)CC4CCC(C)CC4)c(F)c3)c2cc1OC` (stereo not shown) [Example 191, 1-[4-(6,7-dimethoxyquinolin-4-yloxy)-2-fluorophenyl]-3-[2-(4-methyl-cyclohexyl)acetyl]thiourea] it was 0.977 µM; in that of `COc1cc2c(Oc3ccc(NC(=S)NC(=O)Cc4ccccc4Cl)cc3F)ccnc2cc1OCC(O)CN1CCCC1` (stereo not shown) [Example 317, 1-[2-(2-Chloro-phenyl)-acetyl]-3-{3-fluoro-4-[7-(2-hydroxy-3-pyrrolidin-1-yl-propoxy)-6-methoxy-quinolin-4-yloxy]-phenyl}-thiourea], 0.0422 µM; in that of `COc1cc2nccc(Oc3ccc(NC(=O)NC(=O)Nc4ncc(C)cc4Br)cc3)c2cc1OC` [Example 230, N-(3-bromo-5-methyl-2-pyridyl)-({[4-(6,7-dimethoxyquinolin-4-yloxy)anilino]carbonyl}amino)-methanamide], 0.34 µM.
In the case of `COc1cc2nccc(Oc3ccc(NC(=O)NC(=O)Cc4ccc(F)cc4F)c(F)c3)c2cc1OC` [Example 33, 1-[2-(2,4-difluorophenyl)acetyl]-3-[4-(6,7-dimethoxyquinolin-4-yloxy)-2-fluorophenyl]urea] it was 0.0618 µM; in that of `COc1cccc(C(=O)NC(=S)Nc2ccc(Oc3ccnc4cc(OC)c(OC)cc34)c(F)c2)c1` [Example 144, 1-[4-(6,7-dimethoxyquinolin-4-yloxy)-3-fluorophenyl]-3-(3-methoxybenzoyl)thiourea], 0.699 µM; in that of `COc1cc2nccc(Oc3ccc(NC(=O)NC(=O)Cc4ccc(F)cc4)cc3)c2cc1OC` [Example 22, 1-[4-(6,7-dimethoxyquinolin-4-yloxy)phenyl]-3-[2-(4-fluorophenyl)acetyl]urea], 0.0246 µM.
The compound `COc1cc2c(Oc3ccc(NC(=O)NC(=O)Cc4ccccc4)cc3F)ccnc2cc1OCCN1CCOCC1` [Example 54, 1-{3-fluoro-4-[6-methoxy-7-(2-morpholin-4-yl-ethoxy)quinolin-4-yloxy]phenyl}-3-phenylacetylurea] gave an IC50 of 0.0261 µM.
For `COc1cc2nccc(Oc3ccc(NC(=O)NC(=O)CSC4CCCC4)cc3)c2cc1OC` [Example 7, 1-(2-cyclopentylsulfanylacetyl)-3-[4-(6,7-dimethoxyquinolin-4-yloxy)phenyl]urea] the value was 0.292 µM.
For `COc1cc2nccc(Oc3ccc(NC(=O)NC(=O)CSC4CCCCC4)cc3F)c2cc1OC` [Example 115, 1-(2-cyclohexylsulfanylacetyl)-3-[4-(6,7-dimethoxyquinolin-4-yloxy)-3-fluorophenyl]urea] the value was 0.359 µM; for `COc1cc2nccc(Oc3ccc(NC(=O)NC(=O)Nc4c(C)cccc4C)cc3)c2cc1OC` [Example 258, N-(2,6-dimethylphenyl)-({[4-(6,7-dimethoxy-quinolin-4-yloxy)anilino]carbonyl}amino)methanamide], 0.357 µM.
For `COc1cc2c(Oc3ccc(NC(=O)NC(=O)Cc4ccccc4F)cc3F)ccnc2cc1OCCCN1CCCCC1` [Example 295, 1-{3-Fluoro-4-[6-methoxy-7-(3-piperidin-1-yl-propoxy)-quinolin-4-yloxy]-phenyl}-3-[2-(2-fluoro-phenyl)-acetyl]-urea] the value was 0.0241 µM; for `COc1cc2nccc(Oc3ccc(NC(=O)NC(=O)Nc4ccccn4)cc3)c2cc1OC` [Example 236, N-(2-pyridyl)-({[4-(6,7-dimethoxyquinolin-4-yloxy)anilino]carbonyl}amino)methanamide], 0.235 µM.
As for `COc1cc2nccc(Oc3ccc(NC(=O)NC(=O)Cc4cccc(F)c4)cc3F)c2cc1OC` [Example 37, 1-[4-(6,7-dimethoxyquinolin-4-yloxy)-3-fluoro-phenyl]-3-[2-(3-fluorophenyl)acetyl]urea], 0.0584 µM corresponded to half-maximal inhibition (IC50).
For `COc1cc2c(Oc3ccc(NC(=O)NC(=O)Cc4ccccc4F)cc3F)ccnc2cc1OCCCN1CCCC1` [Example 294, 1-{3-Fluoro-4-[6-methoxy-7-(3-pyrrolidin-1-yl-propoxy)-quinolin-4-yloxy]-phenyl}-3-[2-(2-fluoro-phenyl)-acetyl]-urea] the value was 0.023 µM.
Turning to `COc1cc2nccc(Oc3ccc(NC(=S)NC(=O)CC4CCC(C)CC4)cc3F)c2cc1OC` (stereo not shown) [Example 192, 1-[4-(6,7-dimethoxyquinolin-4-yloxy)-3-fluorophenyl]-3-[2-(4-methyl-cyclohexyl)acetyl]thiourea], 0.687 µM corresponded to half-maximal inhibition (IC50).
In the case of `COc1cc2nccc(Oc3ccc(NC(=S)NC(=O)C4C[C@@H]4c4ccccc4)cc3)c2cc1OC` (stereo in doubt) [Example 150, 1-[4-(6,7-dimethoxyquinolin-4-yloxy)phenyl]-3-(2-phenylcyclopropanecarbonyl)thiourea], 1.28 µM corresponded to half-maximal inhibition (IC50).
For `COc1cc2nccc(Oc3ccc(NC(=O)NC(=O)Nc4cccc(C)c4)cc3)c2cc1OC` [Example 256, N-(3-methylphenyl)-({[4-(6,7-dimethoxy-quinolin-4-yloxy)anilino]carbonyl}amino)methanamide] the value was 0.281 µM.
For `COc1cc2nccc(Oc3cc(C)c(NC(=O)CC(=O)Nc4ccc(F)cc4F)cc3C)c2cc1OC` [Example 224, N-(2,4-difluorophenyl)-N′-[4-(6,7-dimethoxy-quinolin-4-yloxy)-2,5-dimethylphenyl]malonamide] the value was 0.316 µM; for `CCN(CC)CCOc1cc2nccc(Oc3ccc(NC(=S)NC(=O)Cc4ccc(F)cc4)cc3F)c2cc1OC` [Example 275, 1-{4-[7-(2-Diethylamino-ethoxy)-6-methoxy-quinolin-4-yloxy]-3-fluoro-phenyl}-3-[2-(4-fluoro-phenyl)-acetyl]-thiourea], 0.023 µM.
`COc1cc2c(Oc3ccc(NC(=S)NC(=O)Cc4ccccc4)cc3F)ccnc2cc1OCCCN1CCC(CO)CC1` [Example 309, 1-(3-Fluoro-4-{7-[3-(4-hydroxymethyl-piperidin-1-yl)-propoxy]-6-methoxy-quinolin-4-yloxy}-phenyl)-3-phenylacetyl-thiourea] showed an IC50 of 0.0201 µM.
For `COc1cc2c(Oc3ccc(NC(=S)NC(=O)Cc4ccccc4)cc3F)ccnc2cc1OCCN1CCN(C)CC1` [Example 270, 1-(3-Fluoro-4-{6-methoxy-7-[2-(4-methyl-piperazin-1-yl)-ethoxy]-quinolin-4-yloxy}-phenyl)-3-phenylacetyl-thiourea] the value was 0.0267 µM; for `COc1cc2nccc(Oc3ccc(NC(=O)NC(=O)Cc4ccc(F)cc4)cc3Cl)c2cc1OC` [Example 24, 1-[3-chloro-4-(6,7-dimethoxyquinolin-4-yloxy)phenyl]-3-[2-(4-fluorophenyl)acetyl]urea], 0.0277 µM; for `COc1cc2c(Oc3ccc(NC(=O)NC(=O)Cc4ccc(F)cc4)c(F)c3)ccnc2cc1OCCCCN1CCCCC1` [Example 45, 1-{2-fluoro-4-[6-methoxy-7-(4-piperidine-1-yl-butoxy)quinolin-4-yloxy]phenyl}-3-[2-(4-fluorophenyl)-acetyl]urea], 0.207 µM.
Turning to `COc1cc2nccc(Oc3ccc(NC(=O)CC(=O)Nc4ccccc4)cc3)c2cc1OC` [Example 100, N-[4-(6,7-dimethoxyquinolin-4-yloxy)phenyl]-N′-phenylmalonamide], the IC50 is 0.0308 µM.
In the case of `COc1cc2nccc(Oc3ccc(NC(=S)NC(=O)Cc4ccc(Cl)cc4)c(F)c3)c2cc1OC` [Example 188, 1-[2-(4-chlorophenyl)acetyl]-3-[4-(6,7-dimethoxyquinolin-4-yloxy)-2-fluorophenyl]thiourea] it was 0.253 µM; in that of `COc1cc2nccc(Oc3ccc(NC(=S)NC(=O)Cc4ccccc4)c(Cl)c3)c2cc1OC` [Example 65, 1-[2-chloro-4-(6,7-dimethoxyquinolin-4-yloxy)-phenyl]-3-phenylacetylthiourea], 0.0663 µM.
For `COc1cc2nccc(Oc3ccc(NC(=S)NC(=O)Cc4cccc(Cl)c4)cc3)c2cc1OC` [Example 171, 1-[2-(3-chlorophenyl)acetyl]-3-[4-(6,7-dimethoxyquinolin-4-yloxy)phenyl]thiourea] the value was 0.282 µM.
In the case of `COc1cc2nccc(Oc3ccc(NC(=O)NC(=O)Nc4cc(C)ccn4)cc3)c2cc1OC` [Example 105, N-(4-methyl-2-pyridyl)-({[4-(6,7-dimethoxy-quinolin-4-yloxy)anilino]carbonyl}amino)methanamide] it was 0.104 µM; in that of `COc1cc2nccc(Oc3ccc(NC(=O)NC(=O)Nc4cccc(C)n4)cc3)c2cc1OC` [Example 234, N-(6-methyl-2-pyridyl)-({[4-(6,7-dimethoxy-quinolin-4-yloxy)anilino]carbonyl}amino)methanamide], 0.457 µM; in that of `COc1cc2c(Oc3ccc(NC(=O)NC(=O)Cc4ccccc4)cc3F)ccnc2cc1OCCCCN1CCN(C)CC1` [Example 12, 1-(3-fluoro-4-{6-methoxy-7-[4-(4-methyl-piperazin-1-yl)-butoxy]quinolin-4-yloxy}phenyl)-3-phenylacetylurea], 0.199 µM.

By IC50 is commonly meant the point on the concentration scale where inhibition reaches its midpoint. Higher therefore signals lower potency.
